Holding throughout (format): biochemical
One assay concerns the target T1, JAK2 (Homo sapiens, UniProt O60674).
T1 construct: 5 μl of catalytic domain recombinant Kinase enzyme+Tyr peptide substrate (Invitrogen, CA); purchased Invitrogen
The assay is described as follows: Z'-LYTE kinase assay JAK2. The essentials: (§1)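 Catalytic-domain recombinant kinase was incubated with Tyr6 FRET peptide, ATP and compound (1% DMSO final) for 1 h at room temperature. Protease development followed for 1 h, cleaving only non-phosphorylated peptide. Inhibition of phosphorylation was read as coumarin/fluorescein FRET fluorescence.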

The next assay concerns the target T2, JAK1 (Homo sapiens, UniProt P23458).
T2 construct: 5 μl of catalytic domain recombinant Kinase enzyme+Tyr peptide substrate (Invitrogen, CA); purchased Invitrogen
The assay is described as follows: Z'-LYTE kinase assay JAK1. Summed up:
as §1

A further assay has as its target T3, JAK3 (Homo sapiens, UniProt P52333).
T3 construct: 5 μl of catalytic domain recombinant Kinase enzyme+Tyr peptide substrate (Invitrogen, CA); purchased Invitrogen
The assay is described as follows: Z'-LYTE kinase assay JAK3. Summed up:
as §1

T3 sequence (P52333 822-1111 limits assumed): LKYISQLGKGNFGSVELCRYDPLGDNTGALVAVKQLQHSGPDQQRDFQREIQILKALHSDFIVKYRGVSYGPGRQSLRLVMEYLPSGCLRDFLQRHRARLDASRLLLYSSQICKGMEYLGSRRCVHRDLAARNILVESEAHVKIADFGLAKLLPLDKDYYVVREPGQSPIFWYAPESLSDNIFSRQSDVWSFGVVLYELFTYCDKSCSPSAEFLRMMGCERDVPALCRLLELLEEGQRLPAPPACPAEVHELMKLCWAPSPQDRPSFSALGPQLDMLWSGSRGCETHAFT
T1 sequence (O60674 849-1124 limits assumed): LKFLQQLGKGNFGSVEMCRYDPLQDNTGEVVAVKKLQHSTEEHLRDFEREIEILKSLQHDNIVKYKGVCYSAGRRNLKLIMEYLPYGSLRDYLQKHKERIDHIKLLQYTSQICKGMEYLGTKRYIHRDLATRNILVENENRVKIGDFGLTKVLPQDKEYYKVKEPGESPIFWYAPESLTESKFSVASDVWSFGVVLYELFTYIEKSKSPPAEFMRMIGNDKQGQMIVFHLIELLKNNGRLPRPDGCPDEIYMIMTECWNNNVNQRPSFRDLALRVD
T2 sequence (P23458 875-1153 limits assumed): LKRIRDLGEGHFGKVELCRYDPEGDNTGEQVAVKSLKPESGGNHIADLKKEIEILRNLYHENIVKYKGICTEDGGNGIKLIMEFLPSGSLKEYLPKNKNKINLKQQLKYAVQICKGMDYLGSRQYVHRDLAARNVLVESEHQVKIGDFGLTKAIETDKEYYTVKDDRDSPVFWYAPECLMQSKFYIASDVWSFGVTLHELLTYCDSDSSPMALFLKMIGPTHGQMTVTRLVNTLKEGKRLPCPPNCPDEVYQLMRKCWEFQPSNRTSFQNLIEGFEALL

Regarding `Cc1cc(Nc2cc(NCc3cccc4[nH]ccc34)c(C(N)=O)cn2)ccc1C(=O)N1CCOCC1` [Example 462, 4-((1H-indol-4-yl)methylamino)-6-(3-methyl-4-(morpholine-4-carbonyl)phenylamino)nicotinamide], the IC50 was 1 to 10 nM against JAK2, 1 to 10 nM against JAK1 and below 1 nM against JAK3.
Regarding `Cc1cc(Nc2cc(NCc3cccc4cc[nH]c34)c(C(N)=O)cn2)ccc1C(=O)N1CCC1` [Example 463, 4-((1H-indol-7-yl)methylamino)-6-(4-(azetidine-1-carbonyl)-3-methylphenylamino)nicotinamide], the IC50 at JAK2 was 10 to 100 nM; on JAK1, above 1000 nM; against JAK3, 1 to 10 nM.
As to `COC(=O)N(C)c1ccc(Nc2cc(NCc3cccc4ccsc34)c(C(N)=O)cn2)cc1` [Example 465, methyl 4-(4-(benzo[b]thiophen-7-ylmethylamino)-5-carbamoylpyridin-2-ylamino)phenyl(methyl)carbamate], the IC50 on JAK2 is 100 to 1000 nM; against JAK1, above 1000 nM; at JAK3, 1 to 10 nM.
Regarding `CCC(=O)N(C)c1ccc(Nc2cc(NCc3cccc4ccsc34)c(C(N)=O)cn2)cc1` [Example 466, 4-(benzo[b]thiophen-7-ylmethylamino)-6-(4-(N-methylpropionamido)phenylamino)nicotinamide], the IC50 is 100 to 1000 nM against JAK2, 100 to 1000 nM at JAK1 and 1 to 10 nM on JAK3.
Turning to `CN(C(=O)C1CC1)c1ccc(Nc2cc(NCc3cccc4ccsc34)c(C(N)=O)cn2)cc1` [Example 467, 4-(benzo[b]thiophen-7-ylmethylamino)-6-(4-(N-methylcyclopropanecarboxamido)phenylamino)nicotinamide], the IC50 lay in the range of 100 to 1000 nM at JAK2, 100 to 1000 nM against JAK1 and 10 to 100 nM against JAK3.
As for `CC(=O)N(C)c1ccc(Nc2cc(NCc3cccc4ccsc34)c(C(N)=O)cn2)cc1` [Example 468, 4-(benzo[b]thiophen-7-ylmethylamino)-6-(4-(N-methylacetamido)phenylamino)nicotinamide], the IC50 against JAK2 lay within 10 to 100 nM; on JAK1, 100 to 1000 nM; against JAK3, 1 to 10 nM.
Take `CC(=O)N(C)c1ccc(Nc2cc(NCc3cccc4[nH]ccc34)c(C(N)=O)cn2)cc1` [Example 469, 4-((1H-indol-4-yl)methylamino)-6-(4-(N-methylacetamido)phenylamino)nicotinamide]: the half-maximal inhibitory concentration (IC50) against JAK2 lay in the range of 10 to 100 nM; on JAK1 it was 10 to 100 nM; on JAK3, 1 to 10 nM.
As for `CC(=O)N(C)c1ccc(Nc2cc(NCc3cccc4cc[nH]c34)c(C(N)=O)cn2)cc1` [Example 470, 4-((1H-indol-7-yl)methylamino)-6-(4-(N-methylacetamido)phenylamino)nicotinamide], the values for the IC50 against JAK2, against JAK1 and against JAK3 were 100 to 1000 nM, above 1000 nM and 10 to 100 nM, respectively.
The corresponding values for `CC(=O)Nc1ccc(Nc2cc(NCc3cccc4ccsc34)c(C(N)=O)cn2)cc1` [Example 471, 6-(4-acetamidophenylamino)-4-(benzo[b]thiophen-7-ylmethylamino)nicotinamide] are 10 to 100 nM, 10 to 100 nM and 1 to 10 nM.
In the case of `CC(=O)Nc1ccc(Nc2cc(NCc3cccc4[nH]ccc34)c(C(N)=O)cn2)cc1` [Example 472, 4-((1H-indol-4-yl)methylamino)-6-(4-acetamidophenylamino)nicotinamide], the figures for the IC50 at JAK2, on JAK1 and against JAK3 were 10 to 100 nM, 1 to 10 nM and below 1 nM, respectively.
Regarding `CC(=O)Nc1ccc(Nc2cc(NCc3cccc4cc[nH]c34)c(C(N)=O)cn2)cc1` [Example 473, 4-((1H-indol-7-yl)methylamino)-6-(4-acetamidophenylamino)nicotinamide], the figures for the IC50 against JAK2, against JAK1 and against JAK3 were 100 to 1000 nM, 100 to 1000 nM and 10 to 100 nM, respectively.
On to `COC(=O)N(C)c1ccc(Nc2cc(NCc3cccc4[nH]ccc34)c(C(N)=O)cn2)cc1` [Example 474, methyl 4-(4-((1H-indol-4-yl)methylamino)-5-carbamoylpyridin-2-ylamino)phenyl(methyl)carbamate], for which the results for the IC50 on JAK2, against JAK1 and against JAK3 were 10 to 100 nM, 10 to 100 nM and 1 to 10 nM, respectively.
With `CCC(=O)N(C)c1ccc(Nc2cc(NCc3cccc4[nH]ccc34)c(C(N)=O)cn2)cc1` [Example 475, 4-((1H-indol-4-yl)methylamino)-6-(4-(N-methylpropionamido)phenylamino)nicotinamide], the figures for the IC50 on JAK2, at JAK1 and at JAK3 were 10 to 100 nM, 10 to 100 nM and 1 to 10 nM, respectively.
For the molecule `CN(C(=O)C1CC1)c1ccc(Nc2cc(NCc3cccc4[nH]ccc34)c(C(N)=O)cn2)cc1` [Example 476, 4-((1H-indol-4-yl)methylamino)-6-(4-(N-methylcyclopropanecarboxamido)phenylamino)nicotinamide], the figures for the IC50 against JAK2, on JAK1 and at JAK3 were 10 to 100 nM, 10 to 100 nM and 1 to 10 nM, respectively.
As for `CCC(=O)N(C)c1ccc(Nc2cc(NCc3cccc4cc[nH]c34)c(C(N)=O)cn2)cc1` [Example 477, 4-((1H-indol-7-yl)methylamino)-6-(4-(N-methylpropionamido)phenylamino)nicotinamide], the IC50 on JAK2 is 100 to 1000 nM; against JAK1 it was above 1000 nM; against JAK3, 10 to 100 nM.
With `CN(C(=O)C1CC1)c1ccc(Nc2cc(NCc3cccc4cc[nH]c34)c(C(N)=O)cn2)cc1` [Example 478, 4-((1H-indol-7-yl)methylamino)-6-(4-(N-methylcyclopropanecarboxamido)phenylamino)nicotinamide], the IC50 against JAK2 is 100 to 1000 nM; against JAK1, above 1000 nM; on JAK3, 100 to 1000 nM.
With `COC(=O)N(C)c1ccc(Nc2cc(NCc3cncc(F)c3)c(C(N)=O)cn2)cc1` [Example 479], the IC50 against JAK2 was in the range of 100 to 1000 nM; against JAK1, 100 to 1000 nM; at JAK3, 10 to 100 nM.
As to `CCC(=O)N(C)c1ccc(Nc2cc(NCc3cncc(F)c3)c(C(N)=O)cn2)cc1` [Example 480, 4-((5-fluoropyridin-3-yl)methylamino)-6-(4-(N-methylpropionamido)phenylamino)nicotinamide], the IC50 is 100 to 1000 nM on JAK2, above 1000 nM at JAK1 and 10 to 100 nM on JAK3.
With `CN(C(=O)C1CC1)c1ccc(Nc2cc(NCc3cncc(F)c3)c(C(N)=O)cn2)cc1` [Example 481, 4-((5-fluoropyridin-3-yl)methylamino)-6-(4-(N-methylcyclopropanecarboxamido)phenylamino)nicotinamide], the IC50 at JAK2 lay in the range of 100 to 1000 nM; on JAK1 it was 100 to 1000 nM; against JAK3, 10 to 100 nM.
Regarding `COC(=O)N(C)c1ccc(Nc2cc(NCc3cccc4cc[nH]c34)c(C(N)=O)cn2)cc1` [Example 482, methyl 4-(4-((1H-indol-7-yl)methylamino)-5-carbamoylpyridin-2-ylamino)phenyl(methyl)carbamate], the IC50 on JAK2 is above 1000 nM; against JAK1, above 1000 nM; against JAK3 it was 10 to 100 nM.
For `CC(=O)N(C)c1ccc(Nc2cc(NCc3cncc(F)c3)c(C(N)=O)cn2)cc1` [Example 483, 4-((5-fluoropyridin-3-yl)methylamino)-6-(4-(N-methylacetamido)phenylamino)nicotinamide], the IC50 was 100 to 1000 nM on JAK2, above 1000 nM against JAK1 and 10 to 100 nM against JAK3.
For `CC(=O)Nc1ccc(Nc2cc(NCc3cncc(F)c3)c(C(N)=O)cn2)cc1` [Example 484, 6-(4-acetamidophenylamino)-4-((5-fluoropyridin-3-yl)methylamino)nicotinamide], in that order: 100 to 1000 nM, 100 to 1000 nM and 1 to 10 nM.
The corresponding values for `CC(=O)N(C)c1ccc(Nc2cc(NCc3cccc(F)n3)c(C(N)=O)cn2)cc1` [Example 485, 4-((6-fluoropyridin-2-yl)methylamino)-6-(4-(N-methylacetamido)phenylamino)nicotinamide] are 100 to 1000 nM, above 1000 nM and 10 to 100 nM.
For `CC(=O)Nc1ccc(Nc2cc(NCc3cccc(F)n3)c(C(N)=O)cn2)cc1` [Example 486, 6-(4-acetamidophenylamino)-4-((6-fluoropyridin-2-yl)methylamino)nicotinamide], in that order: 100 to 1000 nM, 100 to 1000 nM and 10 to 100 nM.
For the molecule `COC(=O)N(C)c1ccc(Nc2cc(NCc3cccc(F)n3)c(C(N)=O)cn2)cc1` [Example 487], the IC50 on JAK2 is 100 to 1000 nM; on JAK1, 100 to 1000 nM; at JAK3 it was 10 to 100 nM.
Take `CCC(=O)N(C)c1ccc(Nc2cc(NCc3cccc(F)n3)c(C(N)=O)cn2)cc1` [Example 488, 4-((6-fluoropyridin-2-yl)methylamino)-6-(4-(N-methylpropionamido)phenylamino)nicotinamide]: the IC50 was 100 to 1000 nM at JAK2, 100 to 1000 nM against JAK1 and 10 to 100 nM on JAK3.
Take `CN(C(=O)C1CC1)c1ccc(Nc2cc(NCc3cccc(F)n3)c(C(N)=O)cn2)cc1` [Example 489, 4-((6-fluoropyridin-2-yl)methylamino)-6-(4-(N-methylcyclopropanecarboxamido)phenylamino)nicotinamide]: the 50% inhibitory concentration (IC50) is 100 to 1000 nM against JAK2, 100 to 1000 nM at JAK1 and 10 to 100 nM against JAK3.
Consider `CCC(=O)N1CC(c2ccc(Nc3cc(NCc4cccc(F)n4)c(C(N)=O)cn3)cc2)C1` [Example 490, 4-((6-fluoropyridin-2-yl)methylamino)-6-(4-(1-propionylazetidin-3-yl)phenylamino)nicotinamide], for which the values for the IC50 against JAK2, against JAK1 and against JAK3 were 100 to 1000 nM, 100 to 1000 nM and 10 to 100 nM, respectively.

By IC50 is commonly meant the concentration at which inhibition is half-maximal. Low readings indicate greater potency in that assay, high ones weaker potency in that assay.

The values above are taken from patent US20150353495A1 (PORTOLA PHARMACEUTICALS, INC., priority 2010, published 2015).
